# Measured values from EP0476120B1, “PROCESS FOR PREPARING EQUIMOLAR SALTS OF ASPARTIC ACID AND MAGNESIUM, MAGNESIUM ASPARTATE SALT OBTAINED BY SAID PROCESS AND ITS APPLICATIONS” (LA[…] SPINDLER, priority 1990, dated 1991).
# “And” between values parts separate entries of the source, which are not always exact repeats. Equal entries are not always repeated. Where two headings read alike, the source gives them in different places.
# What was measured:
# souris [1] = details: mouse
# Description: (§1) Ces études ont été réalisées chez des souris mâles, de souche NMRI-Han, réparties au hasard en lots de 15 souris (séries traitées) et 20 souris (série contrôle).
# La motilité a été mesurée à l'aide d'un actimètre "type Dews" (Brit. J. Pharmacol. 1953, 8 : 46). Les animaux sont placés un par un dans une enceinte rectangulaire en matière plastique transparente (mesures intérieures : L = 24 cm, l = 15 cm, h = 9,5 cm), couverte par un grillage métallique et traversée par deux faisceaux infra-rouges perpendiculaires situés à 2 cm au-dessus du plancher (médianes de l'enceinte); ces deux faisceaux viennent frapper deux cellules photo-électriques reliées à un compteur d'impulsions déclenché à chaque fois que l'animal coupe un des faisceaux. Les actimètres ont été placés dans une pièce non insonorisée mais en dehors de tout bruit aigu, à une température de l'ordre de 21°C.
# L'activité motrice a été mesurée au cours des 5 premières minutes (exploration non anxiogène) puis entre 5 et 15 minutes (activité basale non anxiogène).
# (§2) Les doses ont été calculées selon une progression géométrique de base 700 (correspondant au 1/10 de la DL 50) et de raison 2, soit respectivement 175, 350, 700 et 1400 mg.kg⁻¹.
# (§3) Les traitements sont réalisés 60 minutes avant le test.
# (§4) Il est identique à celui décrit dans l'exemple précédent.
# (§5) Les doses ont été calculées selon une progression géométrique de base 700 (correspondant au 1/10 de la DL 50) et de raison 2, soit respectivement 10,95; 21,9; 43,8; 87,5; 175; 350; 700 mg/kg. […] Les derniers traitements ont été réalisés 60 minutes avant le test.
# [2] = tested on: singes cynomolggus (Macaca fascicularis); details: monkey
# Description: L'étude a été réalisée chez sept singes cynomolggus (Macaca fascicularis), de sexe mâle et femelle, pesant entre 2 et 5 kg.
# Un mois avant le début de l'étude, sous anesthésie générale (kétamine + xylazine) huit électrodes (boules d'argent) ont été implantées dans la table osseuse, au niveau des aires frontale, centrale, pariétale et occipitale droites et gauche. L'électrocorticogramme a été enregistré sur un électroencéphalographe REEGA mini-huit (Alvar Electronic) en dérivations monopolaires par rapport à une référence commune.
# Les enregistrements ont été réalisés sur des animaux habitués au siège à contention, en position assise, dans une pièce calme mais non insonorisée, en ambiance lumineuse tamisée.
# Les huit dérivations EEG ont été analysées simultanément par un Neuromapper 1620 (Neuroscience) qui extrait du signal les transformées de Fourier ("Fast Fourier Transform" : FFT). En fait, 90 échantillons de 2 secondes, soit 3 minutes de tracé exempt d'artefact, ont été analysés. Les données recueillies correspondent à l'amplitude (»V) de chacune des 5 bandes de fréquence EEG classiques selon les bornes suivantes : delta de 0 à 4 Hz ; thêta de 7 à 8 Hz ; alpha de 8 à 13 Hz, bêta₁ de 13 à 20 Hz ; bêta₂ de 20 à 30 Hz.
# Pour chacune de ces bandes ont ensuite été calculées : • Les puissances absolues en »V² • les puissances relatives (%), c'est-à-dire la puissance de chacune des bandes de fréquence rapportée à la puissance totale du spectre (power) • la "SEF 95 % (Spectral Edge Frequency 95 %) qui est la fréquence en deçà de laquelle se situent 95 % de la puissance totale du spectre, • le rapport entre fréquences rapides et fréquences lentes : alpha+ bêta/delta + thêta ( α+β/δ+ϑ [formula] )
# La dernière ingestion a précédé de 1 heure la seconde administration de diazépam.
# Le diazépam (ampoules injectables - Valium® 10 - Roche) a été administré par voie orale, en solution aqueuse, sous un volume de 10 ml/singe, à des doses comprises entre 0,5 mg.kg⁻¹ et 4 mg.kg⁻¹ (doses différentes du fait d'une sensibilité individuelle propre à chaque sujet).
# 100 (le seuil de probabilité statistique choisi peut paraître élevé ; il est en rapport avec le faible nombre de sujets : n=7). L'ensemble de l'analyse statistique a été obtenu grâce au programme statistique SPSS/PC⁺ (SPSS Inc., Chicago)
# souris [3] = details: for Animaux tombés (%): controls 20,0
# Description: Le test dit du "rota-rod" permet de juger le tonus musculaire et la coordination motrice de souris placées sur une tige tournant à vitesse constante.
# as §1
# La DA 50 s'exprime par la dose qui provoque en moins de 3 minutes la chute de 50 p. 100 des souris placées sur une tige en bois tournant à une vitesse de 16 tours/min (diamètre 1,7 cm). Ce test qui permet de juger de la coordination motrice des souris est adapté de la technique décrite par N.W. DUNHAN and T.S. MIYA (J. Am. Pharm. Assoc. 1957, 46 : 208)
# as §2, §3, §4, §5
# souris [4] = details: mouse; for Nombre de passages "punis" (moyenne): 60 min before test, controls 5,8
# Description: Le test est pratiqué chez des souris NMRI-HAN soumises à une diète hydrique préalable de 18 heures et réparties en séries de 15.
# L'appareillage utilisé consiste en une boite en plexiglas dont le sol est constitué de 4 plaques métalliques séparées les unes des autres. Un circuit d'alimentation permet d'établir une différence de potentiel entre deux plaques adjacentes grâce à un contacteur. Le test est pratiqué en plaçant doucement une souris sur une des plaques du fond de l'appareil ; les plaques sont électrifiées chaque fois que la souris passe de l'une à l'autre, de telle sorte qu'elle reçoit alors un choc électrique au niveau des pattes. Les paramètres du choc sont les suivants : durée de l'impulsion électrique égale à 0,5 seconde ; intensité égale à 0,6 milliampères. Ce choc induit chez les animaux une réaction motrice évidente de fuite, la souris traversant souvent 2 à 3 plaques successivement. Les conditions expérimentales adoptées ont été les suivantes : exploration libre pendant 15 secondes, traversée punie pendant la minute suivante, les résultats étant exprimés en nombre de passages "punis" pendant cette minute. Soixante souris ont été réparties de la façon suivante :
# Les administrations ont été réalisées par voie intra-gastrique, à partir de solutions aqueuses, sous un volume constant de 20 ml.kg⁻¹, 60 minutes avant le début du test. Les animaux contrôles ont reçu un même volume d'eau distillée.
# Les administrations ont été réalisées par voie intra-gastrique, à partir de solutions aqueuses, sous un volume constant de 20 ml.kg⁻¹ par produit 60 minutes avant le début du test. Les animaux contrôles ont reçu un même volume d'eau distillée.
# Dans un premier temps a été calculée la DA 50 (dose anxiolytique 50) du Diazépam (Valium® 10 mg - Roche, ampoule 2ml) seul, administré à des doses suivant une progression géométrique de base 0,25 et de raison 2, soit respectivement 0,25, 0,5 l et 2 mg.kg⁻¹.
# La DA 50 est déterminée à partir du pourcentage d'animaux tranquillisés. Est considéré comme tranquillisé tout animal dont le nombre de passages punis est égal ou supérieur à 9, c'est-à-dire à une valeur représentant une augmentation d'au moins 50 % par rapport au score moyen d'animaux non traités.
# Toutes les administrations ont été réalisées par voie intra-gastrique à partir de solutions aqueuses, sous un volume constant de 20 ml.kg⁻¹ (eau distillée pour le groupe contrôle). […] La veille du test, les souris sont soumises à une diète hydrique de 18 heures. La dernière ingestion est pratiquée une heure avant l'étude, concomitamment avec le diazépam (Valium® 10 mg - Roche, ampoules de 2 ml).
# souris [5] = details: mouse; for animaux ne présentant pas de comportement anxiogène (miction, défécation): controls 20 %; for souris présentant une défécation et une miction émotionnelles: controls 85 p. 100
# Description: as §1
# Enfin, l'effet à l'égard des manifestations dites émotionnelles est mesuré sur la miction et la défécation au cours des 3 minutes passées dans le cylindre et permet le calcul d'une DA 50 dite "anti-émotionnelle".
# as §2, §3, §4, §5
# [6] = repeated daily dosing (13 days), 10.95 mg/kg P.O., last dose 60 min before test
# [7] = repeated daily dosing (13 days), 21.9 mg/kg P.O., last dose 60 min before test
# [8] = repeated daily dosing (13 days), 43.8 mg/kg P.O., last dose 60 min before test, 43.8 mg/kg
# [9] = repeated daily dosing (13 days), 43.8 mg/kg P.O., last dose 60 min before test, listed as Mag, 43.8 mg/kg
# [10] = repeated daily dosing (13 days), 87.5 mg/kg P.O., last dose 60 min before test
# [11] = repeated daily dosing (13 days), 175 mg/kg P.O., last dose 60 min before test
# [12] = repeated daily dosing (13 days), 350 mg/kg P.O., last dose 60 min before test, 350 mg/kg
# [13] = repeated daily dosing (13 days), 350 mg/kg P.O., last dose 60 min before test, listed as Mag, 350 mg/kg
# [14] = repeated daily dosing (13 days), 700 mg/kg P.O., last dose 60 min before test
# [15] = single dose 175 mg.kg⁻¹ P.O., 60 min before test
# [16] = single dose 350 mg.kg⁻¹ P.O., 60 min before test
# [17] = single dose 700 mg.kg⁻¹ P.O., 60 min before test
# [18] = single dose 700 mg.kg⁻¹ P.O., 60 min before test, listed as Mag
# [19] = single dose 1400 mg.kg⁻¹ P.O., 60 min before test
substance,measurement,setting,value
α-β-aspartate de magnésium,"Activité motrice 0-5 minutes, nombre de coupures de faisceaux (moyenne)",souris [1]; [6],98
same,"Activité motrice 0-15 minutes, nombre de coupures de faisceaux (moyenne)",souris [1]; [6],221
same,"Activité motrice 5-15 minutes, nombre de coupures de faisceaux (moyenne)",souris [1]; [6],123
same,"Activité motrice 0-5 minutes, nombre de coupures de faisceaux (moyenne)",souris [1]; [7],104
same,"Activité motrice 0-15 minutes, nombre de coupures de faisceaux (moyenne)",souris [1]; [7],237
same,"Activité motrice 5-15 minutes, nombre de coupures de faisceaux (moyenne)",souris [1]; [7],133
same,"Activité motrice 0-15 minutes, nombre de coupures de faisceaux (moyenne)","souris [1]; repeated daily dosing (13 days), 43.8 mg/kg P.O., last dose 60 min before test",232
same,"Activité motrice 0-5 minutes, nombre de coupures de faisceaux (moyenne)",souris [1]; [8],élévation significative
same,"Activité motrice 5-15 minutes, nombre de coupures de faisceaux (moyenne)",souris [1]; [8],élévation significative
same,"Activité motrice 0-5 minutes, nombre de coupures de faisceaux (moyenne)",souris [1]; [9],104
same,"Activité motrice 5-15 minutes, nombre de coupures de faisceaux (moyenne)",souris [1]; [9],128
same,"Activité motrice 0-5 minutes, nombre de coupures de faisceaux (moyenne)",souris [1]; [10],99
same,"Activité motrice 0-15 minutes, nombre de coupures de faisceaux (moyenne)",souris [1]; [10],195
same,"Activité motrice 5-15 minutes, nombre de coupures de faisceaux (moyenne)",souris [1]; [10],96
same,"Activité motrice 0-5 minutes, nombre de coupures de faisceaux (moyenne)",souris [1]; [11],106
same,"Activité motrice 0-15 minutes, nombre de coupures de faisceaux (moyenne)",souris [1]; [11],228
same,"Activité motrice 5-15 minutes, nombre de coupures de faisceaux (moyenne)",souris [1]; [11],122
same,"Activité motrice 0-15 minutes, nombre de coupures de faisceaux (moyenne)","souris [1]; repeated daily dosing (13 days), 350 mg/kg P.O., last dose 60 min before test",248
same,"Activité motrice 0-5 minutes, nombre de coupures de faisceaux (moyenne)",souris [1]; [12],élévation significative
same,"Activité motrice 5-15 minutes, nombre de coupures de faisceaux (moyenne)",souris [1]; [12],élévation significative
same,"Activité motrice 0-5 minutes, nombre de coupures de faisceaux (moyenne)",souris [1]; [13],107
same,"Activité motrice 5-15 minutes, nombre de coupures de faisceaux (moyenne)",souris [1]; [13],141
same,"Activité motrice 0-5 minutes, nombre de coupures de faisceaux (moyenne)",souris [1]; [14],104
same,"Activité motrice 0-15 minutes, nombre de coupures de faisceaux (moyenne)",souris [1]; [14],230
same,"Activité motrice 5-15 minutes, nombre de coupures de faisceaux (moyenne)",souris [1]; [14],126
same,"Activité motrice 0-5 minutes, nombre de coupures de faisceaux (moyenne)",souris [1]; [15],100
same,"Activité motrice 0-15 minutes, nombre de coupures de faisceaux (moyenne)",souris [1]; [15],172
same,"Activité motrice 5-15 minutes, nombre de coupures de faisceaux (moyenne)",souris [1]; [15],72
same,"Activité motrice 0-5 minutes, nombre de coupures de faisceaux (moyenne)",souris [1]; [16],96
same,"Activité motrice 0-15 minutes, nombre de coupures de faisceaux (moyenne)",souris [1]; [16],213
same,"Activité motrice 5-15 minutes, nombre de coupures de faisceaux (moyenne)",souris [1]; [16],117
same,"Activité motrice 0-5 minutes, nombre de coupures de faisceaux (moyenne)",souris [1]; [17],augmentation statistiquement significative
same,"Activité motrice 0-15 minutes, nombre de coupures de faisceaux (moyenne)",souris [1]; [17],258
same,"Activité motrice 5-15 minutes, nombre de coupures de faisceaux (moyenne)",souris [1]; [17],augmentation statistiquement significative
same,"Activité motrice 0-5 minutes, nombre de coupures de faisceaux (moyenne)",souris [1]; [18],113
same,"Activité motrice 5-15 minutes, nombre de coupures de faisceaux (moyenne)",souris [1]; [18],145
same,"Activité motrice 0-5 minutes, nombre de coupures de faisceaux (moyenne)",souris [1]; [19],110
same,"Activité motrice 0-15 minutes, nombre de coupures de faisceaux (moyenne)",souris [1]; [19],214
same,"Activité motrice 5-15 minutes, nombre de coupures de faisceaux (moyenne)",souris [1]; [19],104
same,"""SEF 95%"" augmentée","[2]; 50 mg.kg⁻¹ orally twice daily for two weeks, before diazepam","0,5 Hz"
same,puissance relative de la bande β accrue,"[2]; 50 mg.kg⁻¹ orally twice daily for two weeks, resting EEG, individual values of 4 of 7 subjects","4,4% and 3,6% and 6,2% and 13%"
same,ondes delta accrues,"[2]; 50 mg.kg⁻¹ orally twice daily for two weeks, individual values among the 3 other monkeys",5% and 8%
same,proportion relative de la bande β₂,"[2]; after two weeks of α-β-aspartate de magnésium, before diazepam, reference before any drug 20 %",23%
same,Animaux tombés (%),"souris [3]; mouse, 10,95 mg.kg⁻¹ P.O x13","26,6%"
same,Animaux tombés (%),"souris [3]; mouse, 21,9 mg.kg⁻¹ P.O x13","33,3%"
same,Animaux tombés (%),"souris [3]; mouse, 43,8 mg.kg⁻¹ P.O x13","46,6%"
same,Animaux tombés (%),"souris [3]; mouse, 67,5 mg.kg⁻¹ P.O x13","33,3%"
same,Animaux tombés (%),"souris [3]; mouse, 175,0 mg.kg⁻¹ P.O x13","46,6%"
same,Animaux tombés (%),"souris [3]; mouse, 350,0 mg.kg⁻¹ P.O x13","33,3%"
same,Animaux tombés (%),"souris [3]; mouse, 700,0 mg.kg⁻¹ P.O x13","33,3%"
same,souris qui chutent de la tige tournante au cours des 3 minutes,"souris [3]; mouse, single dose 175 mg.kg⁻¹ P.O., controls 25 %",13%
same,"DA 50 (réduction du tonus musculaire, rota-rod)","souris [3]; mouse, single dose P.O., Litchfield-Wilcoxon, confidence limits (5 p. 100) 343 - 1091 mg.kg⁻¹",612 mg/kg
same,"Nombre de passages ""punis"" (moyenne)",souris [4]; single dose 300 mg.kg⁻¹ P.O.,n'accroît pas significativement
same,"Nombre de passages ""punis"" (moyenne)","souris [4]; single dose 300 mg.kg⁻¹ P.O., listed as Mag","6,4"
same,"Nombre de passages ""punis"" (moyenne)",souris [4]; single dose 600 mg.kg⁻¹ P.O.,accru significativement
same,"Nombre de passages ""punis"" (moyenne)","souris [4]; single dose 600 mg.kg⁻¹ P.O., listed as Mag","8,3"
same,"Nombre de passages ""punis"" (moyenne)",souris [4]; single dose 1200 mg.kg⁻¹ P.O.,accru significativement
same,"Nombre de passages ""punis"" (moyenne)","souris [4]; single dose 1200 mg.kg⁻¹ P.O., listed as Mag","7,5"
same,dose optimum (propriétés tranquillisantes mineures),souris [4]; single dose P.O.,600 mg/kg
same,"DA 50 (enceinte anxiogène, sujets ne présentant pas de comportement anxieux)","souris [5]; repeated administration over 13 days P.O., limits 11,26 - 68,66 mg/kg","27,8 mg/kg and 28 mg/kg and 27,81 mg/kg"
same,"animaux ne présentant pas de comportement anxiogène (miction, défécation)","souris [5]; repeated dosing (13 days), 175 mg/kg P.O.","73,3%"
same,"animaux ne présentant pas de comportement anxiogène (miction, défécation)","souris [5]; repeated dosing (13 days), 350 mg/kg P.O.",60%
same,"animaux ne présentant pas de comportement anxiogène (miction, défécation)","souris [5]; repeated dosing (13 days), 700 mg/kg P.O.","66,7%"
same,"animaux ne présentant pas de comportement anxiogène (miction, défécation)","souris [5]; repeated dosing (13 days), 10,95 mg/kg P.O.",40%
same,"animaux ne présentant pas de comportement anxiogène (miction, défécation)","souris [5]; repeated dosing (13 days), 21,9 mg/kg P.O.",40%
same,"animaux ne présentant pas de comportement anxiogène (miction, défécation)","souris [5]; repeated dosing (13 days), 43,8 mg/kg P.O.",60%
same,"animaux ne présentant pas de comportement anxiogène (miction, défécation)","souris [5]; repeated dosing (13 days), 87,5 mg/kg P.O.","66,7%"
same,souris présentant une défécation et une miction émotionnelles,souris [5]; single dose 175 mg.kg⁻¹ P.O.,40%
same,souris présentant une défécation et une miction émotionnelles,souris [5]; single dose 350 mg.kg⁻¹ P.O.,53%
same,souris présentant une défécation et une miction émotionnelles,souris [5]; single dose 700 mg.kg⁻¹ P.O.,27%
same,souris présentant une défécation et une miction émotionnelles,souris [5]; single dose 1400 mg.kg⁻¹ P.O.,73%
same,"DA 50 ""anti-émotionnelle""","souris [5]; single dose P.O., confidence limits (5 p. 100) 160 - 2082 mg.kg⁻¹",577 mg/kg
